Reference: PMC9501129 (Pharmaceutics, 2022)
Read-outs that look alike come from different tables or passages of the source.

Assays:
[1] = test system: simian/human immunodeficiency virus (SHIV); conditions: long-acting CAB; cited from earlier work
[2] = Amniotic fluid drug concentration in mouse pregnancy model (HPLC-MSMS); assay type: in vivo, C57BL/6J mice; conditions: pregnant mice; for Kp at 1 h / concentration at 1 h: female, C57BL/6J, mouse, oral; for Kp at 1 h: amniotic fluid / maternal plasma; for concentration at 1 h: amniotic fluid
Source text: All animal experiments were approved by the University Health Network Animal Use Committee (protocol #2575) and performed according to the policies and guidelines of the Canadian Council on Animal Care. C57BL/6J mice bred in-house (original breeders from Jackson Laboratory RRID:IMSR JAX:000664) were maintained under a 12-h light/dark cycle, with ad libitum access to food and water. Animals were acclimated to their surroundings for 1 week prior to experiment initiation. Males were isolated for 7 days prior to mating. Female mice (7–12 weeks of age) were mated with males at a ratio of 2:1. Presence of vaginal plug was denoted as gestational day 0.5 (GD0.5). Pregnancy was confirmed by weight gain of >1.5 g on GD9.5 and >3 g on GD13.5. […] The equivalent mouse mg/kg dose was calculated based on the human dose divided by an assumed average human weight of 60 kg. […] On GD15.5, mice underwent saphenous bleed 24 h after the GD14.5 dose administration (trough). Immediately after the saphenous bleed, mice were dosed with the appropriate drug regimen and sacrificed 1 h post-treatment (peak), at which time blood was collected by cardiac puncture and amniotic fluid was collected by dissecting the uterus, puncturing the amniotic sac, and draining the amniotic fluid into a sterile dish. Amniotic fluid was pooled for the entire litter. Samples from 2 dams per arm were analyzed for drug levels.
Briefly, 50 μL of plasma or amniotic fluid was spiked with internal standard (ritonavir-d6) followed by protein precipitation with acetonitrile and filtration. Filtrates were diluted 1:9 with ammonium acetate buffer (10 mM) and analyzed by the HPLC-MSMS system, consisting of a Shimadzu Nexera XR high-performance liquid chromatograph (Shimadzu, Columbia, MD, USA) coupled with a SCIEX API 4500 QqQ mass spectrometer (SCIEX, Concord, ON, Canada). Chromatographic separation by Mobile Phase A (10% methanol, 5% 50 mM ammonium acetate, 85% 0.25% acetic acid pH 3.6 ± 0.2) and Mobile Phase B (90% methanol, 5% 50 mM ammonium acetate, 5% 0.25% acetic acid pH 6.6 ± 0.2) was performed under linear gradient conditions (flow rate 0.7 mL/min) on a reverse-phase Zorbax XDB-C18 column (Agilent Technologies, Santa Clara, CA, USA) maintained at 40 °C. […] HPLC-MSMS data were acquired using Analyst (v 1.6.3, SCIEX, Concord, ON, Canada) and analyzed with MultiQuant software (v 3.0.3, SCIEX, Concord, ON, Canada). […] Positive controls spiked in-house and prepared by an external laboratory during a sample exchange program were included in all runs.

[3] = ex-vivo dually perfused human cotyledon; cited from earlier work
pregnant rats = conditions: cited from earlier work
[4] = cited from earlier work
[5] = CAB 5 mg/kg (10×) oral gavage once daily GD11.5-GD15.5 with TDF 50 mg/kg + FTC 33.3 mg/kg, mean (SD), n=2
[6] = of 13 pregnant women living with HIV (4 oral CAB, 9 LA CAB)

C[C@H]1CO[C@@H]2Cn3cc(C(=O)NCc4ccc(F)cc4F)c(=O)c(O)c3C(=O)N12 [CAB, cabotegravir]
Efficacy against intrarectal SHIV [1]: protective efficacy | Efficacy against repeated high-dose intravaginal SHIV [1]: protective efficacy | Kp at 1 h ([2]; 1× to 10× CAB, 1 h after dosing, read-out: Ratio of drug in the amniotic fluid to that in maternal plasma): 0.034 to 0.055 | Kp at 1 h ([2]; CAB 0.5 mg/kg (1×) oral gavage once daily GD11.5-GD15.5 with TDF 50 mg/kg + FTC 33.3 mg/kg, mean (SD), n=2, read-out: Amniotic: Maternal Plasma Ratio 1 h): 0.05 | Kp at 1 h ([2]; CAB 1.5 mg/kg (3×) oral gavage once daily GD11.5-GD15.5 with TDF 50 mg/kg + FTC 33.3 mg/kg, mean (SD), n=2, read-out: Amniotic: Maternal Plasma Ratio 1 h): 0.055 | Kp at 1 h ([2]; CAB 5 mg/kg (10×) oral gavage once daily GD11.5-GD15.5 with TDF 50 mg/kg + FTC 33.3 mg/kg, mean (SD), n=2, read-out: Amniotic: Maternal Plasma Ratio 1 h): 0.034 | concentration at 1 h ([2]; CAB 0.5 mg/kg (1×) oral gavage once daily GD11.5-GD15.5 with TDF 50 mg/kg + FTC 33.3 mg/kg, mean (SD), n=2): 44.9 ng/mL | concentration at 1 h ([2]; CAB 1.5 mg/kg (3×) oral gavage once daily GD11.5-GD15.5 with TDF 50 mg/kg + FTC 33.3 mg/kg, mean (SD), n=2): 59.9 ng/mL | concentration at 1 h [2, 5]: 112 ng/mL | Amniotic Fluid 1 h [2, 5]: 112.4 (33.6) ng/mL | Concentration in the fetal compartment [3]: 48 ng/mL | Concentration in the maternal compartment [3]: 550 ng/mL | Maternal-to-fetal ratio [3]: 10% | Placental transfer [3]: low placental transfer | Reproductive toxicity findings (pregnant rats; CAB orally 1000 mg/kg/day, gestational day 6 to lactation day 21): delayed onset of parturition, increased number of stillbirths, and increased number of neonatal deaths at lactation day 4 | CAB exposure relative to the recommended human dose (pregnant rats; rats, 1000 mg/kg/day): 28 times | Birth defects ([4]; 13 pregnant women living with HIV (4 oral CAB, 9 LA CAB)): No cases of birth defects were reported | Women with live births [4, 6]: Four | Women with miscarriage within the first nine weeks of gestation [4, 6]: four
